# Test results taken from patent publication US20040102454A1, “Phenylahistin and the phenylahistin analogs, a new class of anti-tumor compounds” (priority 1998, published 2004).
# pKi: −log10 of the molar value. Entries after “also recorded” stand apart in the source; their conditions may differ.
# Columns and labels:
# bovine brain tubulin [1] = experiment: [^3H]VLB binding competition assay; conditions: DEAE-cellulose filter method; listed as (−)-PLH
# [2] = test system: Lewis Lung Carcinoma cells; experiment: In vivo antitumor activity against Lewis Lung Carcinoma
# Procedure: (§1) Male BDF1 mice (6 weeks old) were inoculated subcutaneously in the right flank region with Lewis Lung Carcinoma cells (1×10^5 cells/body) on day 0. PLH [(−)-PLH content; 41.7%] was suspended in 10% ethanol-saline, and was administered daily at a dose of 24 mg/kg, 72 mg/kg, or 240 mg/kg intraperitoneally, as a single injection (0.2 ml/body), from days 1 to 14. Each group consisted of six mice. Mice were weighed, and the length (L) and the width (W) of the tumor were measured three times a week. On day 15, mice were sacrificed, and the tumor was excised and weighed. The estimated tumor weight (ETW) was calculated according to the following formula:
# (§2) ETW (mg)=L (mm)×W^2 (mm^2 )/2,
# where L represents the length of the tumor and W represents the width of the tumor. The suppression rate was calculated according to the following formula:
# (§3) Suppression rate (%)=[1×(TWt/TWc)]×100,
# (§4) Average and standard errors were calculated for each group. Variance analysis was performed by the Bartlett method (significance level: 5%), and if the variance was uniform, a Dunnett's multiple comparison test was performed. However, if the variance was not uniform, rank conversion was performed followed by variance analysis again by the Bartlett method (significance level: 5%). Significance was established at the p<0.05 level.
# P388 cells = experiment: Cell cycle progression of P388, flow cytometer; type: cell-based, murine; conditions: 1×10^−6 M, 8-hour incubation
# Procedure: The effect of phenylahistin on the cell cycle progression of P388 cells was also investigated using a flow cytometer, as described in Krishan, A., J. Cell Biol. (1975) 66, 188-193. P388 cells in the log growth phase were seeded into flasks and cultured for 14 hours, and then various concentrations of phenylahistin were added to each flask. After an 8-hour incubation, the cells were harvested and fixed with 50% MeOH at −20° C. overnight. The cells were washed with 30% MeOH and then with 10 mM PBS, and treated with 50 :g/ml propidium iodide at 4° C. for 2 hours. DNA histograms were obtained using a flow cytometer (Cyto ACE-300:JASCO).
# Colon 26 cells = experiment: In vivo antitumor activity against Colon 26
# Procedure: as §1, §2, §3, §4
# Male CDFI mice (6 weeks old) were inoculated subcutaneously in the right flank region with Colon 26 cells (1×10^5 cells/body) on day 0. Each group consisted of six mice. Preparation and administration of PLH, and the evaluation of antitumor activity was carried out as described for Lewis Lung Carcinoma, in EXAMPLE 14.
# [3] = test system: phosphocellulose-purified tubulin; experiment: Polymerization of purified tubulin (turbidity); type: biochemical, bovine
# Procedure: Microtubule protein was prepared from bovine brain tissue by two cycles of assembly and disassembly according to the method of Tiwari, S. C. et al. Anal. Biochem, (1993), 215, 96-103. Tubulin was purified from microtubule protein by phosphocellulose chromatography see Algaier, J. et al. Biochim. Biophys. Acta, (1988), 954, 235-43, and tubulin purity was evaluated by polyacrylamide gel electrophoresis, as in Laemmli, U.K., Nature, (1970), […], 680-85. […] Protein concentrations were determined using the Coomassie® Protein Assay Reagent from Pierce (Rockford, Ill.).
# Polymerization of microtubule protein was monitored by an increase in turbidity at 37° C. in microtubule assembly buffer containing 100 mM MES, 0.5 mM MgCl2, 1 mM EGTA and 1 mM GTP. See Johnson, K. A. et al., J. Mol. Biol., (1977), 117, 1-31. Polymerization of purified tubulin was measured using the same method except the microtubule assembly buffer contained 4 M glycerol. See Lee, J. C. et al., Biochemistry, (1975), 14, 5183-87. Microtubule protein and tubulin polymerization was initiated by a temperature shift from 0° C. to 37° C. and turbidity was measured on a DU-20 thermocontrolled spectrophotometer from Beckman (Fullerton, Calif.) at 360 nm. Drugs were dissolved in dimethyl sulfoxide (DMSO), which was used in all experiments at a final concentration of 2% (v/v).
# bovine brain tubulin [4] = experiment: [^3H]CLC binding to tubulin and competition assay; conditions: Dixon plot, assuming competitive inhibition; 0.5 μM [^3H]CLC; read-out: estimated Ki value for CLC binding
# Procedure: [^3H]CLC binding to tubulin was evaluated by the ultrafiltration method of Takahashi, M., et al., Biochim. Biophys. […] The concentration of unbound [^3H]CLC in the filtrates was determined using a EcoLite™(+) liquid scintillator from ICN Pharmaceuticals Inc. (Costa Mesa, Calif.). Specific bound [^3H]CLC concentrations were determined by adding an excess (×100) of unlabeled CLC to the reaction mixture.
# For the competition assay, bovine brain tubulin (0.2 mg/ml) was incubated in the microtubule assembly buffer with 0.5 μM [^3H]CLC and various concentrations of competitors for 20 min at 37° C. [^3H]CLC binding was measured as described above.
# [5] = test system: yeast strain Saccharomyces cerevisise HF7C; experiment: Antimicrobial test, liquid culture medium dilution method; type: cell-based
# Procedure: Using colibacillus strain JM109 as a gram-negative bacterium, Bacillus natto as a […] and Aspergillus niger IFO6341 as a mold, the following antimicrobial test was conducted by the filter paper agar flat plate method, wherein 100 μg of specimen was placed on 9 mm filter paper, dried in air, and standard agar culture medium was used for bacteria and potato dextrose agar culture medium for mold. […] An antimicrobial test was further conducted by the liquid culture medium dilution method using the yeast strain Saccharomyces cerevisise HF7C.
# [6] = calculated from (−)-PLH content 41.7%
smiles,measurement,setting,value
C=CC(C)(C)c1[nH]cnc1/C=C1\NC(=O)[C@H](Cc2ccccc2)NC1=O [(−)-phenylahistin],effect on [^3H]VLB binding to tubulin,bovine brain tubulin [1],not inhibited; also recorded: slightly enhanced
same,"95% confidence limit of ED50, as (−)-PLH",[2]; [6],9.2˜210.2 mg/kg/day
same,"ED50, calculated dose of (−)-PLH",[2]; [6],43.9 mg/kg/day
same,cell cycle inhibitory activity (G2/M),P388 cells,exhibited cell cycle inhibitory activity
same,cell cycle inhibitory activity (G2/M),P388 cells; listed as (−)-PLH,completely inhibits the cell cycle progression
same,"95% confidence limit of ED50, as (−)-PLH",Colon 26 cells; [6],12.1˜165.8 mg/kg/day
same,"ED50, calculated dose of (−)-PLH",Colon 26 cells; [6],44.7 mg/kg/day
same,inhibition of tubulin polymerization compared with CLC,[3],as effective as CLC
same,pKi,bovine brain tubulin [4],5.13
"C=CC(C)(C)c1[nH]cnc1/C=C1\NC(=O)[C@H](Cc2ccccc2)NC1=O (racemic) [PLH, phenylahistin]",rate of suppression (excised tumor weight),[2]; 24 mg/kg/day,9.9%
same,weight of the excised tumor on the fifteenth day,[2]; 24 mg/kg/day,"2,941 mg"
same,estimated tumor weight (ETW),"[2]; 24 mg/kg/day, day 7",86 mg
same,estimated tumor weight (ETW),"[2]; 24 mg/kg/day, day 15","2,244 mg"
same,rate of suppression (excised tumor weight),[2]; 72 mg/kg/day,27.1%
same,weight of the excised tumor on the fifteenth day,[2]; 72 mg/kg/day,"2,380 mg"
same,estimated tumor weight (ETW),"[2]; 72 mg/kg/day, day 7",34 mg
same,estimated tumor weight (ETW),"[2]; 72 mg/kg/day, day 15","2,142 mg"
same,mice died,"[2]; 72 mg/kg/day, on day 11",1 mouse
same,body weight,[2]; 240 mg/kg/day,"markedly lower than control values after day 3, and significantly lower on day 6"
same,rate of suppression (excised tumor weight),[2]; 240 mg/kg/day,81.0%
same,weight of the excised tumor on the fifteenth day,[2]; 240 mg/kg/day,619 mg
same,estimated tumor weight (ETW),"[2]; 240 mg/kg/day, day 7",34 mg
same,suppression of the ETW,"[2]; 240 mg/kg/day, day 10",81.8%
same,suppression of the ETW,"[2]; 240 mg/kg/day, day 13",82.3%
same,estimated tumor weight (ETW),"[2]; 240 mg/kg/day, day 15",617 mg
same,suppression of the ETW,"[2]; 240 mg/kg/day, day 15",73.2%
same,mice died,"[2]; 240 mg/kg/day, on day 13",1 mouse
same,body weight,[2]; 24 and 72 mg/kg/day,little change in body weight
same,95% confidence limit of ED50,[2]; PLH with (−)-PLH content 41.7%,22.0˜504.1 mg/kg/day
same,ED50,"[2]; linear regression of suppression rate, PLH with (−)-PLH content 41.7%",105.3 mg/kg/day
same,mice died,"[2]; mouse, in vivo",None
same,rate of suppression (excised tumor weight),Colon 26 cells; 24 mg/kg/day,4.0%
same,weight of the excised tumor on the fifteenth day,Colon 26 cells; 24 mg/kg/day,"1,113 mg"
same,body weight,Colon 26 cells; 24 mg/kg/day and 72 mg/kg/day,No marked changes in the weight
same,increments of ETW,Colon 26 cells; 24 mg/kg/day and 72 mg/kg/day,slightly lower than those of the control group
same,rate of suppression (excised tumor weight),Colon 26 cells; 72 mg/kg/day,27.3%
same,weight of the excised tumor on the fifteenth day,Colon 26 cells; 72 mg/kg/day,843 mg
same,body weight,Colon 26 cells; 240 mg/kg/day,lower than that of the control group from day 3
same,mice died,Colon 26 cells; 240 mg/kg/day,"one mouse died on day 12, two died on day 13 and one died on day 14"
same,rate of suppression (excised tumor weight),Colon 26 cells; 240 mg/kg/day,81.8%
same,weight of the excised tumor on the fifteenth day,Colon 26 cells; 240 mg/kg/day,211 mg
same,ETW,"Colon 26 cells; 240 mg/kg/day, day 7",14 mg
same,suppression rate (ETW),"Colon 26 cells; 240 mg/kg/day, day 10",64.4%
same,suppression rate (ETW),"Colon 26 cells; 240 mg/kg/day, day 13",78.8%
same,ETW,"Colon 26 cells; 240 mg/kg/day, day 15",254 mg
same,suppression rate (ETW),"Colon 26 cells; 240 mg/kg/day, day 15",85.4%
same,95% confidence limit of ED50,Colon 26 cells; PLH with (−)-PLH content 41.7%,29.0˜397.7 mg/kg/day
same,ED50,Colon 26 cells; PLH with (−)-PLH content 41.7%,107.3 mg/kg/day
same,mice died,"Colon 26 cells; mouse, in vivo",No mice died
same,antimicrobial activity,[5],no antimicrobial activity
